According to PubChem BioAssay AID504400 (The Scripps Research Institute Molecular Screening Center, 2011):
Calls of active or inactive are those of the source. No rule for the calls is given here.

Assays:
Test in all cases: CYP450 and receptor off-target profile – biochemical, Ricerca HitProfilingScreen, selectivity assay for S1P4 agonist project, late-stage follow-up (AID 504400)
[1] = molecular target: 5-hydroxytryptamine receptor 2B (Homo sapiens) (UniProt P41595); conditions: Ricerca radioligand binding/enzyme panel plus CYP450; Serotonin (5-Hydroxytryptamine) 5-HT2B; at 10 µM; stronger effect = higher value
Sequence of 5-hydroxytryptamine receptor 2B (Homo sapiens) (P41595 whole entry, looked up): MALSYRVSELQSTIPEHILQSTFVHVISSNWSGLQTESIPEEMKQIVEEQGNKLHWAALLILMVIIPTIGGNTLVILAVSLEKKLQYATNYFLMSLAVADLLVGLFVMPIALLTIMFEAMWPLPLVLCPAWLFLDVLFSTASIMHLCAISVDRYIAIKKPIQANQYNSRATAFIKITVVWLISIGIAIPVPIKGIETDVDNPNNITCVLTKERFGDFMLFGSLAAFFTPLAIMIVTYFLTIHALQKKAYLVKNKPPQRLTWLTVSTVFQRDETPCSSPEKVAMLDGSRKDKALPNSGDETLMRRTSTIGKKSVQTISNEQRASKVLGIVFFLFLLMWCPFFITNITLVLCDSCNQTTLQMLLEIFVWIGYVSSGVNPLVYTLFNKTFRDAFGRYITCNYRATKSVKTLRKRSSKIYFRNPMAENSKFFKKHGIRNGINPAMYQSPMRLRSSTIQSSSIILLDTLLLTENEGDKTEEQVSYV

Adenosine A1 = conditions: Ricerca radioligand binding/enzyme panel plus CYP450, at 10 µM, stronger effect = higher value
Adenosine A2A = conditions: Ricerca radioligand binding/enzyme panel plus CYP450, at 10 µM, stronger effect = higher value
Adrenergic alpha1A = conditions: Ricerca radioligand binding/enzyme panel plus CYP450, at 10 µM, stronger effect = higher value
Adrenergic alpha1B = conditions: Ricerca radioligand binding/enzyme panel plus CYP450, at 10 µM, stronger effect = higher value
Adrenergic beta1 = conditions: Ricerca radioligand binding/enzyme panel plus CYP450, at 10 µM, stronger effect = higher value
[2] = molecular target: Alpha-2A adrenergic receptor (Homo sapiens) (UniProt P08913); conditions: Ricerca radioligand binding/enzyme panel plus CYP450; Adrenergic alpha2A; at 10 µM; stronger effect = higher value
Sequence of Alpha-2A adrenergic receptor (Homo sapiens) (P08913 whole entry, looked up): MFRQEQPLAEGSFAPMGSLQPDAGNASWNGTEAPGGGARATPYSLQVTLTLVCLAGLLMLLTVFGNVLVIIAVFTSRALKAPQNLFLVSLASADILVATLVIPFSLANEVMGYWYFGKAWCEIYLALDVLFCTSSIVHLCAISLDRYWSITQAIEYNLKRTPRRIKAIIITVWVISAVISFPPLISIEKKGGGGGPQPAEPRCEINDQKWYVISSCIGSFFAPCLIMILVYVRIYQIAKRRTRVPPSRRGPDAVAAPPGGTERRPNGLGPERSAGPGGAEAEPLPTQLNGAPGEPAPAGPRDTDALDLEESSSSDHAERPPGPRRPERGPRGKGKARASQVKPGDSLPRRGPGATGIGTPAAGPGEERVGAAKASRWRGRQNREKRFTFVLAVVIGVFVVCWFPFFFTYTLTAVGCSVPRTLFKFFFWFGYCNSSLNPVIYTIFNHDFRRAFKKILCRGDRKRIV

[3] = tested on: Alpha-2A adrenergic receptor (Homo sapiens) + Histamine H1 receptor (Homo sapiens) + Mu-type opioid receptor (Homo sapiens); conditions: Ricerca radioligand binding/enzyme panel plus CYP450; at 10 µM; stronger effect = higher value
[4] = molecular target: Beta-2 adrenergic receptor (Homo sapiens) (UniProt P07550); conditions: Ricerca radioligand binding/enzyme panel plus CYP450; Adrenergic beta2; at 10 µM; stronger effect = higher value
Sequence of Beta-2 adrenergic receptor (Homo sapiens) (P07550 whole entry, looked up): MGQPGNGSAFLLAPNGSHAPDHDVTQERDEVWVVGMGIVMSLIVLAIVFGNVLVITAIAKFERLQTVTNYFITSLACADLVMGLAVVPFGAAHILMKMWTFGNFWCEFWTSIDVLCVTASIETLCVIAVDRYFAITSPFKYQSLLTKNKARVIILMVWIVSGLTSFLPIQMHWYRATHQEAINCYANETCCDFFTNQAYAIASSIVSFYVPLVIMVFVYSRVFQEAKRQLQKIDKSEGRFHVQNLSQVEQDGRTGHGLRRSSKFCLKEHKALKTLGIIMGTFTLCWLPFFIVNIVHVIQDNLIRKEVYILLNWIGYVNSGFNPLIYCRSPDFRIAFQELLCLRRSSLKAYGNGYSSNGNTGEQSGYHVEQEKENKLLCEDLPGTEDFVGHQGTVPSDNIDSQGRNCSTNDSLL

CYP450, 2C19 = conditions: Ricerca radioligand binding/enzyme panel plus CYP450, at 10 µM, stronger effect = higher value
Calcium Channel L-Type = conditions: Ricerca radioligand binding/enzyme panel plus CYP450, Dihydropyridine, at 10 µM, stronger effect = higher value
Cannabinoid CB1 = conditions: Ricerca radioligand binding/enzyme panel plus CYP450, at 10 µM, stronger effect = higher value
[5] = molecular target: Cytochrome P450 1A2 (Homo sapiens) (UniProt P05177); conditions: Ricerca radioligand binding/enzyme panel plus CYP450; CYP450, 1A2; at 10 µM; stronger effect = higher value
Sequence of Cytochrome P450 1A2 (Homo sapiens) (P05177 whole entry, looked up): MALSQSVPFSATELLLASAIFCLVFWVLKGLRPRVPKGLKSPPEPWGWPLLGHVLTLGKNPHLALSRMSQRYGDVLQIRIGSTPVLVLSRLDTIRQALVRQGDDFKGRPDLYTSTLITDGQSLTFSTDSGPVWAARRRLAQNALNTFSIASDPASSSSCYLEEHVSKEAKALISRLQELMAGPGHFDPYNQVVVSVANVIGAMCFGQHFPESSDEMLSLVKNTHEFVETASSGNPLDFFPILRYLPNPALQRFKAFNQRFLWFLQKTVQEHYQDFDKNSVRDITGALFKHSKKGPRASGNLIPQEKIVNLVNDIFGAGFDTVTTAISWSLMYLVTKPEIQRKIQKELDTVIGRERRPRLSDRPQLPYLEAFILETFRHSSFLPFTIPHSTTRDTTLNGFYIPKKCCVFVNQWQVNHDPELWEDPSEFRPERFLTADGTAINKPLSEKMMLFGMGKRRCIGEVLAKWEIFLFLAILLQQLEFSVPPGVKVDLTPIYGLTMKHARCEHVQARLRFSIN

[6] = molecular target: Cytochrome P450 2C9 (Homo sapiens) (UniProt P11712); conditions: Ricerca radioligand binding/enzyme panel plus CYP450; CYP450, 2C9; at 10 µM; stronger effect = higher value
Sequence of Cytochrome P450 2C9 (Homo sapiens) (P11712 whole entry, looked up): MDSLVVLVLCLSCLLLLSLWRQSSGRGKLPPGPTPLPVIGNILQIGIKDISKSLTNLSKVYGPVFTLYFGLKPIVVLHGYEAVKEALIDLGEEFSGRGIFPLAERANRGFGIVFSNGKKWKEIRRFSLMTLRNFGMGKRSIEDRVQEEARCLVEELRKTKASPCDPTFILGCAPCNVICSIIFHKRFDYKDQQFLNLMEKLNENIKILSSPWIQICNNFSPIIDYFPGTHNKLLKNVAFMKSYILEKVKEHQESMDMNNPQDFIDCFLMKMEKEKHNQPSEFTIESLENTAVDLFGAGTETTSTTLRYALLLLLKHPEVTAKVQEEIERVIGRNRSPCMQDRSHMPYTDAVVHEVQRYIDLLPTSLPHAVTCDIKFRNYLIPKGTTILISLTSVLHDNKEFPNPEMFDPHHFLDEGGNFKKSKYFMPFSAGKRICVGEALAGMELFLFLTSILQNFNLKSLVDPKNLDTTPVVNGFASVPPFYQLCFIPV

[7] = molecular target: Cytochrome P450 2D6 (Homo sapiens) (UniProt P10635); conditions: Ricerca radioligand binding/enzyme panel plus CYP450; CYP450, 2D6; at 10 µM; stronger effect = higher value
Sequence of Cytochrome P450 2D6 (Homo sapiens) (P10635 whole entry, looked up): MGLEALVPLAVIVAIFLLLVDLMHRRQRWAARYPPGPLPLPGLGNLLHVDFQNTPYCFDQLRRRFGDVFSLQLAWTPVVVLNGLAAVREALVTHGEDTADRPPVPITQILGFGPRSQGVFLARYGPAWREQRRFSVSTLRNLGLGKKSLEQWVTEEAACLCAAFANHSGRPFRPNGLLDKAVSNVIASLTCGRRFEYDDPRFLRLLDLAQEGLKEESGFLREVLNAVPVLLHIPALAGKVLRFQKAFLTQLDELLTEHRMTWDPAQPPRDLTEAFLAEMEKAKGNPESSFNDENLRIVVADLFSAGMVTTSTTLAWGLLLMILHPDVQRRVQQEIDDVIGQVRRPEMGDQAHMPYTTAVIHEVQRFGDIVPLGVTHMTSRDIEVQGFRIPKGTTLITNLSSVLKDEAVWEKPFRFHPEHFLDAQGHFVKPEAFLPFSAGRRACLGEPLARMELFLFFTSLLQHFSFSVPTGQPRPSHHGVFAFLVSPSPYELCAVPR

[8] = molecular target: Cytochrome P450 3A4 (Homo sapiens) (UniProt P08684); conditions: Ricerca radioligand binding/enzyme panel plus CYP450; CYP450, 3A4; at 10 µM; stronger effect = higher value
Sequence of Cytochrome P450 3A4 (Homo sapiens) (P08684 whole entry, looked up): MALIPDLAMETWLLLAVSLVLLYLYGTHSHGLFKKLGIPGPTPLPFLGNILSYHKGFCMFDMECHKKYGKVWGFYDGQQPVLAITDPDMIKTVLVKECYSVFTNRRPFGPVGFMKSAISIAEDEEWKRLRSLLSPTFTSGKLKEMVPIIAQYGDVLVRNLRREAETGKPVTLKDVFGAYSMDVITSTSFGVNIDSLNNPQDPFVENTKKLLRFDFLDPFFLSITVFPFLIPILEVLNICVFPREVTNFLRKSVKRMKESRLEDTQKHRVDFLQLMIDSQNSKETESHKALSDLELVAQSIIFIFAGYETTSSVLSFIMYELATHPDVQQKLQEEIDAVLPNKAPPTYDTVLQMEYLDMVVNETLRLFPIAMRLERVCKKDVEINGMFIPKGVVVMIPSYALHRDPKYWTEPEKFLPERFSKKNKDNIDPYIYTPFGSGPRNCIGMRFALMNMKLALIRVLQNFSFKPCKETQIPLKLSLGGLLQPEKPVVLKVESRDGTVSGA

[9] = molecular target: D(1A) dopamine receptor (Homo sapiens) (UniProt P21728); conditions: Ricerca radioligand binding/enzyme panel plus CYP450; Dopamine D1; at 10 µM; stronger effect = higher value
Sequence of D(1A) dopamine receptor (Homo sapiens) (P21728 whole entry, looked up): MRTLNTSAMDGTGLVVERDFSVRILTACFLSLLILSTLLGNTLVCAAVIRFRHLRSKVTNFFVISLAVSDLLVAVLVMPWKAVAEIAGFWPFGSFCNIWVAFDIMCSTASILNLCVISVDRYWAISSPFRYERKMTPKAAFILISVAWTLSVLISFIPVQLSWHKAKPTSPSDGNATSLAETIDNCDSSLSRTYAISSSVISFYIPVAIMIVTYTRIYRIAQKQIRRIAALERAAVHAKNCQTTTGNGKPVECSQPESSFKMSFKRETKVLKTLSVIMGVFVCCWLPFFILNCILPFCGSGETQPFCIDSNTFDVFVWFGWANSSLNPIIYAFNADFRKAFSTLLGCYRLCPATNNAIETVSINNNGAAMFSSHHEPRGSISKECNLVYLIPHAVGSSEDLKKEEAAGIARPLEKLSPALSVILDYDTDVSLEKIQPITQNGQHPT

Dopamine D2S = conditions: Ricerca radioligand binding/enzyme panel plus CYP450, at 10 µM, stronger effect = higher value
GABAA = conditions: Central, at 10 µM, stronger effect = higher value
Glutamate NMDA = conditions: Ricerca radioligand binding/enzyme panel plus CYP450, Phencyclidine, at 10 µM, stronger effect = higher value
Histamine H1 = conditions: Ricerca radioligand binding/enzyme panel plus CYP450, at 10 µM, stronger effect = higher value
[10] = molecular target: Muscarinic acetylcholine receptor M2 (Homo sapiens) (UniProt P08172); conditions: Ricerca radioligand binding/enzyme panel plus CYP450, at 10 µM, stronger effect = higher value
Sequence of Muscarinic acetylcholine receptor M2 (Homo sapiens) (P08172 whole entry, looked up): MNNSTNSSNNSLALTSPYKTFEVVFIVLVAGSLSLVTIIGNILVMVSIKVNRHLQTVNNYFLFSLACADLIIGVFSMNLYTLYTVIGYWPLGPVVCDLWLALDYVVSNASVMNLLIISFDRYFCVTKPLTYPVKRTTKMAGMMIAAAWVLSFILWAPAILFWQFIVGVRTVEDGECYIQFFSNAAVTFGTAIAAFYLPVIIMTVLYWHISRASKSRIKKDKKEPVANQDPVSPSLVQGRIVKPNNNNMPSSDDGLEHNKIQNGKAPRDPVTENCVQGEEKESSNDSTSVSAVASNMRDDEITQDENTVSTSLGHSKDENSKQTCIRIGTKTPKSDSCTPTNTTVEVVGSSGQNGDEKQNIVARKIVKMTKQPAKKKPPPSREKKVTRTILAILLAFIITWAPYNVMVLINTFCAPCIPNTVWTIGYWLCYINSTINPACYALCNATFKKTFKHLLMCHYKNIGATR

[11] = molecular target: Muscarinic acetylcholine receptor M3 (Homo sapiens) (UniProt P20309); conditions: Ricerca radioligand binding/enzyme panel plus CYP450, at 10 µM, stronger effect = higher value
Sequence of Muscarinic acetylcholine receptor M3 (Homo sapiens) (P20309 whole entry, looked up): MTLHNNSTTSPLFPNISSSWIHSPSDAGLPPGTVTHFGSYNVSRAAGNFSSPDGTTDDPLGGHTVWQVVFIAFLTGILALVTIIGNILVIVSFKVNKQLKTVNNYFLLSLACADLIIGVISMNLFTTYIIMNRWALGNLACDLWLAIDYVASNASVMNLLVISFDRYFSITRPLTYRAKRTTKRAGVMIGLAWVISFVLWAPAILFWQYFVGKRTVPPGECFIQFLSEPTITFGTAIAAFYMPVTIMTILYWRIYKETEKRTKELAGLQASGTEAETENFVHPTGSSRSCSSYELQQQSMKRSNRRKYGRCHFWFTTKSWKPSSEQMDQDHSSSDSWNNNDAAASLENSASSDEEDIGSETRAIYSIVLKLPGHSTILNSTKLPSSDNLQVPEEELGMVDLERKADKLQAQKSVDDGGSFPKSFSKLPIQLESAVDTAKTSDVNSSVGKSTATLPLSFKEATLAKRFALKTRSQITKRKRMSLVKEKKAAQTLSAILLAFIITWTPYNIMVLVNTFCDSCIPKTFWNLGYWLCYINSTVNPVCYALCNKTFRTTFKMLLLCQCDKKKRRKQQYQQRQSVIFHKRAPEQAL

Nicotinic Acetylcholine = conditions: Ricerca radioligand binding/enzyme panel plus CYP450, at 10 µM, stronger effect = higher value
Opiate mu (OP3, MOP) = conditions: Ricerca radioligand binding/enzyme panel plus CYP450, at 10 µM, stronger effect = higher value
Prostanoid EP4 = conditions: Ricerca radioligand binding/enzyme panel plus CYP450, at 10 µM, stronger effect = higher value
Sigma 1 = conditions: Ricerca radioligand binding/enzyme panel plus CYP450, at 10 µM, stronger effect = higher value
Sodium Channel, Site 2 = conditions: Ricerca radioligand binding/enzyme panel plus CYP450, at 10 µM, stronger effect = higher value
[12] = tested on: Transporter, Norepinephrine (NET); conditions: Ricerca radioligand binding/enzyme panel plus CYP450, at 10 µM, stronger effect = higher value
[13] = molecular target: Voltage-gated inwardly rectifying potassium channel KCNH2 (Homo sapiens) (UniProt Q12809); conditions: Ricerca radioligand binding/enzyme panel plus CYP450; Potassium Channel hERG; at 10 µM; stronger effect = higher value

In the case of `Clc1ccc(OCCOc2ccc(Br)nc2Br)c(Cl)c1`, the inhibition [1] was 27% (inactive), the inhibition (Adenosine A1) was 7% (inactive) and the inhibition (Adenosine A2A) was 10% (inactive). The inhibition (Adrenergic alpha1A) was 28% (inactive), the inhibition (Adrenergic alpha1B) was 26% (inactive) and the inhibition (Adrenergic beta1) was 12% (inactive). The inhibition [2] was 9% (inactive), the inhibition [3] was 0% (inactive) and the inhibition [4] was 7% (inactive). The inhibition (CYP450, 2C19) was 97%, the inhibition (Calcium Channel L-Type) was 51% and the inhibition (Cannabinoid CB1) was 31% (inactive). The inhibition [5] was 58%, the inhibition [6] was 3% (inactive) and the inhibition [7] was 2% (inactive). The inhibition [8] was -5% (inactive), the inhibition [9] was 18% (inactive) and the inhibition (Dopamine D2S) was 25% (inactive). For the same molecule, the inhibition (GABAA; Ricerca radioligand binding/enzyme panel plus CYP450, Flunitrazepam) was 2% (inactive), the inhibition (GABAA; Ricerca radioligand binding/enzyme panel plus CYP450, Muscimol) was 1% (inactive) and the inhibition (Glutamate NMDA) was -5% (inactive). The inhibition (Histamine H1) was 15% (inactive), the inhibition [10] was 2% (inactive) and the inhibition [11] was -3% (inactive). The inhibition (Nicotinic Acetylcholine) was -4% (inactive), the inhibition (Opiate mu (OP3, MOP)) was 9% (inactive) and the inhibition (Prostanoid EP4) was -7% (inactive). The inhibition (Sigma 1) was 22% (inactive), the inhibition (Sodium Channel, Site 2) was 32% (inactive) and the inhibition [12] was 68%. For the same molecule, the inhibition [13] was -1% (inactive).
